Data taken from patent US20120052175A1 (priority 2010, published 2012).

Test: Moisture sensitivity test: hydrolytic degradation of isothiocyanate in aqueous phosphate buffer
Type: physicochemical
Settings: white mustard essential oil (about 25% 4-HBITC) suspended in aqueous phosphate buffer pH about 3.6, about 20-23° C., about 24 hours
Method: Supercritical fluid chromatography can be used to determine the amount of 4-hydroxybenzyl isothiocyanate in a preservative composition. First an accurately weighed amount of the preservative composition is either dissolved in a compatible solvent such as ethyl acetate or ethyl acetate and ethanol mixtures or solid preservative compositions are extracted repeatedly with ethyl acetate.
These solutions are analyzed by supercritical fluid chromatography using the method described by Buskov, S. et al., “Supercritical fluid chromatography as a method of analysis for the determination of 4-hydroxybenzylglucosinolate degradation products,” Journal of Biochemical and Biophysical Methods, Vol. 43, pp 157-174 (2000) with the following modifications. A Berger SFC 3D system equipped with a photodiode array detector (Berger Instruments Inc., Newark, Del.) is used for the analysis. […] The eluate is detected at 226 and 252 nm. […]
Moisture sensitive isothiocyanate compounds are identified by suspending the isothiocyanate containing material in an aqueous phosphate buffer (pH of about 3.6) at room temperature. […] The extraction procedure is repeated after 24 hours and the level of residual isothiocyanate compound is measured by supercritical fluid chromatography. […]

Oc1ccc(CN=C=S)cc1 [4-hydroxybenzyl isothiocyanate]
percent reduction in level of 4-hydroxybenzyl isothiocyanate after 24 hours: about 72%
